Laboratory results reported in article PMC8587151, “Dibenzofuran Derivatives Inspired from Cercosporamide as Dual Inhibitors of Pim and CLK1 Kinases” (Molecules, 2021).
Several values for one entry are separate records, joined by “and”; a condition that tells them apart may be missing. Equal values may be shown once.

Target: T1, HsPim-1 (Homo sapiens, UniProt P11309)
T1 construct: made in house; host or cells: Escherichia coli BL21 DE3 pLysS
Experiment: Kinase assay, luminescent ADP-Glo, 10 µM ATP
Type: biochemical
Details: Table 1; ADP-Glo, 10 µM ATP, duplicate; read-out: Kinase Enzymatic IC50 Pim-1
Description: The synthesized compounds were tested using a luminescence-based assay against a panel of nine kinases: Pim-1, Pim-2, CDK5/p25, CDK9/CyclinT, Haspin, CK1ε, and GSK3β (from human); DYRK1A (from Rattus norvegicus); and CLK1 (from Mus musculus).
Kinase enzymatic activities were assayed with 10 µM ATP in 384-well plates using the luminescent ADP-Glo^TM assay (Promega, Madison, WI, USA) according to the recommendations of the manufacturer (see [56] for details on this method). The transmitted signal was measured using the Envision (PerkinElmer, Waltham, MA, USA) microplate luminometer and expressed in relative light unit (RLU). In order to determine the half maximal inhibitory concentration (IC50), the assays were performed in duplicate in the absence or presence of increasing doses of the tested compounds. GraphPad Prism6 software (GraphPad Software, San Diego, CA, USA) was used to fit dose–response curves and to determine the IC50 values. Kinase activities are expressed in % of maximal activity, i.e., measured in the absence of inhibitor. Peptide substrates were obtained from Proteogenix (Schiltigheim, France).
For kinases expressed in bacteria, the Escherichia coli BL21 DE3 pLysS strain (Invitrogen, ThermoFisher Scientific, Waltham, MA, USA) was transformed with pGEX-2T-1 (Sigma-Aldrich, St. Louis, MO, USA) containing the coding region of the corresponding kinase. For kinases expressed in Sf9 insect cells, the coding region of the corresponding kinase was cloned in pFastBac^TM vector. Purification of the recombinant kinases was performed following the protocol “Bac-to-Bac® Baculovirus Expression System” provided by the manufacturer (Invitrogen, ThermoFisher Scientific, Waltham, MA, USA).
To validate the kinase assay, model inhibitors were used for each tested enzyme: Staurosporine from Streptomyces sp. (#S5921, purity ≥ 95%, Sigma-Aldrich) for HsCK1ε; Indirubin-30-oxime (#I0404, purity ≥ 98%, Sigma-Aldrich) for HsGSK-3β, HsPim-1 and 2, human cyclin-dependent kinases, RnDYRK1A and MmCLK1; CHR-6494 (#SML0648, purity ≥ 98%, Sigma-Aldrich) for Haspin.

T1 sequence (P11309 whole entry): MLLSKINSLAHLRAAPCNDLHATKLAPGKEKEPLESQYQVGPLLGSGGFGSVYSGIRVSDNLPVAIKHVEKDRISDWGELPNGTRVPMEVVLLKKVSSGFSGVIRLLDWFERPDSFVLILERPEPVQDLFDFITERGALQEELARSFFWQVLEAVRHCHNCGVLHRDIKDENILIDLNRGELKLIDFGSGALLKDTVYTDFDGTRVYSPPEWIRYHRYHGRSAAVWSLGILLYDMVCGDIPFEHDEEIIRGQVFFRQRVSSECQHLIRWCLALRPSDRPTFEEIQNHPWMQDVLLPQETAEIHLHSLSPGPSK

SMILES	IC50
COc1cc(OC)c2c(oc3ccc(C(C)=O)cc32)c1C(N)=O [Compound 40, 8-Acetyl-1,3-dimethoxydibenzo[b,d]furan-4-carboxamide]	> 10 µM
NC(=O)c1c(O)cc(O)c2c1oc1ccc(C(F)(F)F)cc12 [Compound 47, 1,3-Dihydroxy-8-(trifluoromethyl)dibenzo[b,d]furan-4-carboxamide]	> 1 µM and 2.35 µM
NC(=O)c1c(O)cc(O)c2c1oc1c([N+](=O)[O-])cccc12 [Compound 15, 1,3-Dihydroxy-6-nitrodibenzo[b,d]furan-4-carboxamide]	0.18 µM
COc1cc2oc3c(C(N)=O)c(OC)cc(OC)c3c2cc1C(C)=O [Compound 38, 8-Acetyl-1,3,7-trimethoxydibenzo[b,d]furan-4-carboxamide]	> 10 µM

Same assay, conditions: Table 2; ADP-Glo, 10 µM ATP, mean of n ≥ 3; read-out: IC50 Pim-1

SMILES	IC50 [µM]
NC(=O)c1c(O)cc(O)c2c1oc1ccc(C(F)(F)F)cc12 [Compound 47, 1,3-Dihydroxy-8-(trifluoromethyl)dibenzo[b,d]furan-4-carboxamide]	2.35
NC(=O)c1c(O)cc(O)c2c1oc1c([N+](=O)[O-])cccc12 [Compound 15, 1,3-Dihydroxy-6-nitrodibenzo[b,d]furan-4-carboxamide]	0.18

Tested on: MV4-11 cells
Experiment: MTT cell proliferation assay
Type: cell-based, human
Details: 48 h, mean ± SEM
From the text: (§1) Various types of hematological malignancies were selected for in vitro testing: the human acute myeloid leukemia (AML) cell line MV4-11, and the human chronic myeloid leukemia (CML) cell lines KU812 and K562. Indeed, Pim kinases are overexpressed in a wide range of hematopoietic malignancies. Solid tumors were also included in the panel of tested cell lines: MCF-7 (human breast adenocarcinoma), HT-29 (human colon adenocarcinoma), and HeLa (human cervical cancer) cells. Cytotoxic effects were evaluated using an MTT assay, and living cells were also counted with the trypan blue dye exclusion method for MV4-11, KU812, and K562 cells.
(§2) MV4-11, K562, and KU812 cell lines were obtained from the Deutshe Sammlung von Mikroorganismens und Zellkulturen (DSMZ) and maintained according to the supplier’s recommendations. All cell lines were cultured in RPMI, with 10% fetal bovine serum, 1% glutamine, and 1% penicillin/ streptomycin at 37 °C and 5% CO2.
(§3) MV4-11, K562, and KU812 cells’ viability was studied using a MTT cell proliferation assay.
(§4) MV4-11, K562, and KU812 cells were incubated with 10 μL of MTT working solution (5 g/L of methylthiazolyldiphenyl-tetrazolium bromide from Sigma Aldrich, Lyon, France) for 4 h. Cells were then lysed overnight at 37 °C with 100 μL of 10% SDS and 0.003% HCl. Optical density (OD) at 570 nm was measured using a spectrophotometer CLARIOstar® (BMG Labtech, Offenburg, Germany). Living cells were also counted with the trypan blue dye exclusion method. […] Data were collected from at least three independent experiments and the values reported are means ± standard errors of the mean (SEM).

SMILES	IC50 MV4-11
NC(=O)c1c(O)cc(O)c2c1oc1ccc(C(F)(F)F)cc12 [Compound 47, 1,3-Dihydroxy-8-(trifluoromethyl)dibenzo[b,d]furan-4-carboxamide]	inactive

Same assay, conditions: Homo sapiens, MV4-11, 48 h, mean ± SEM

SMILES	IC50 [µM]
NC(=O)c1c(O)cc(O)c2c1oc1ccc(C(F)(F)F)cc12 [Compound 47, 1,3-Dihydroxy-8-(trifluoromethyl)dibenzo[b,d]furan-4-carboxamide]	> 100
NC(=O)c1c(O)cc(O)c2c1oc1c([N+](=O)[O-])cccc12 [Compound 15, 1,3-Dihydroxy-6-nitrodibenzo[b,d]furan-4-carboxamide]	30.7 ± 1.1

Tested on: K562 cells
Experiment: MTT cell proliferation assay
Type: cell-based
Details: Homo sapiens, 48 h, mean ± SEM
From the text: as §1, §2, §3, §4

SMILES	IC50 [µM]
NC(=O)c1c(O)cc(O)c2c1oc1ccc(C(F)(F)F)cc12 [Compound 47, 1,3-Dihydroxy-8-(trifluoromethyl)dibenzo[b,d]furan-4-carboxamide]	> 100
NC(=O)c1c(O)cc(O)c2c1oc1c([N+](=O)[O-])cccc12 [Compound 15, 1,3-Dihydroxy-6-nitrodibenzo[b,d]furan-4-carboxamide]	> 100

Tested on: KU812 cells
Experiment: MTT cell proliferation assay
Type: cell-based
Details: Homo sapiens, 48 h, mean ± SEM
From the text: as §1, §2, §3, §4

SMILES	IC50 [µM]
NC(=O)c1c(O)cc(O)c2c1oc1ccc(C(F)(F)F)cc12 [Compound 47, 1,3-Dihydroxy-8-(trifluoromethyl)dibenzo[b,d]furan-4-carboxamide]	> 100
NC(=O)c1c(O)cc(O)c2c1oc1c([N+](=O)[O-])cccc12 [Compound 15, 1,3-Dihydroxy-6-nitrodibenzo[b,d]furan-4-carboxamide]	78.4 ± 2.1

Tested on: HeLa cells
Experiment: MTT cytotoxicity assay
Type: cell-based
Details: Homo sapiens, 72 h
From the text: as §1
(§5) The cancer cell lines MCF-7, HT-29, and HeLa were obtained from Cell Bank of Rio de Janeiro, Brazil, and were grown in RPMI-1640 medium and L929 cells were grown in Dulbecco’s Modified Eagle’s Medium (DMEM). Both media were supplemented with fetal bovine serum (FBS) (10% of the final concentration) followed by treatment with penicillin and streptomycin as antibiotics (1% of the final concentration). The crude was incubated in the presence of CO2 atmosphere (5%) for 24 h with the temperature monitored and maintained at 37 °C.
(§6) MCF-7, HT-29, HeLa, and L929 cells (3×10^5 cells/mL) were plated in 96-well plates and incubated in the presence of CO2 atmosphere (5%) for 24 h at 37 °C. […] Then, 25 μL of MTT (5 mg/mL in PBS) were added to each well and the plates were left for another 3 h in the incubator at 37 °C and at the end of this period, the supernatant was aspirated. To perform the reading, 100 μL of dimethylsulfoxide (DMSO) were added in each well for the dissolution of the formazan crystals. The amount of formazan was measured by reading the plate at 560 nm absorbance. […] Each sample was tested in triplicate in two independent experiments.

SMILES	IC50 [µM]
NC(=O)c1c(O)cc(O)c2c1oc1c([N+](=O)[O-])cccc12 [Compound 15, 1,3-Dihydroxy-6-nitrodibenzo[b,d]furan-4-carboxamide]	24.7 ± 6.7

Tested on: MCF-7 cells
Experiment: MTT cytotoxicity assay
Type: cell-based
Details: Homo sapiens, MCF7, 72 h
From the text: as §1, §5, §6

SMILES	IC50 [µM]
NC(=O)c1c(O)cc(O)c2c1oc1c([N+](=O)[O-])cccc12 [Compound 15, 1,3-Dihydroxy-6-nitrodibenzo[b,d]furan-4-carboxamide]	> 100

Tested on: L929 cells
Experiment: MTT assay, in vitro toxicity on normal cells
Type: cell-based
Details: 72 h, normal mouse fibroblasts
From the text: as §1, §5, §6

SMILES	IC50 [µM]
NC(=O)c1c(O)cc(O)c2c1oc1c([N+](=O)[O-])cccc12 [Compound 15, 1,3-Dihydroxy-6-nitrodibenzo[b,d]furan-4-carboxamide]	49.2 ± 1

Tested on: not given
Experiment: not given
Details: not given

SMILES	melting point [°C]
COc1cc(OC)c2c(oc3ccc(C(C)=O)cc32)c1C(N)=O [Compound 40, 8-Acetyl-1,3-dimethoxydibenzo[b,d]furan-4-carboxamide]	237 to 238
NC(=O)c1c(O)cc(O)c2c1oc1ccc(C(F)(F)F)cc12 [Compound 47, 1,3-Dihydroxy-8-(trifluoromethyl)dibenzo[b,d]furan-4-carboxamide]	347 to 348
NC(=O)c1c(O)cc(O)c2c1oc1c([N+](=O)[O-])cccc12 [Compound 15, 1,3-Dihydroxy-6-nitrodibenzo[b,d]furan-4-carboxamide]	> 300
